Test [1] has as its target T1, human αβγ ENaC (α subunit) (Homo sapiens, UniProt P37088+P51168+P51170).
T1 sequence (P37088 1-669): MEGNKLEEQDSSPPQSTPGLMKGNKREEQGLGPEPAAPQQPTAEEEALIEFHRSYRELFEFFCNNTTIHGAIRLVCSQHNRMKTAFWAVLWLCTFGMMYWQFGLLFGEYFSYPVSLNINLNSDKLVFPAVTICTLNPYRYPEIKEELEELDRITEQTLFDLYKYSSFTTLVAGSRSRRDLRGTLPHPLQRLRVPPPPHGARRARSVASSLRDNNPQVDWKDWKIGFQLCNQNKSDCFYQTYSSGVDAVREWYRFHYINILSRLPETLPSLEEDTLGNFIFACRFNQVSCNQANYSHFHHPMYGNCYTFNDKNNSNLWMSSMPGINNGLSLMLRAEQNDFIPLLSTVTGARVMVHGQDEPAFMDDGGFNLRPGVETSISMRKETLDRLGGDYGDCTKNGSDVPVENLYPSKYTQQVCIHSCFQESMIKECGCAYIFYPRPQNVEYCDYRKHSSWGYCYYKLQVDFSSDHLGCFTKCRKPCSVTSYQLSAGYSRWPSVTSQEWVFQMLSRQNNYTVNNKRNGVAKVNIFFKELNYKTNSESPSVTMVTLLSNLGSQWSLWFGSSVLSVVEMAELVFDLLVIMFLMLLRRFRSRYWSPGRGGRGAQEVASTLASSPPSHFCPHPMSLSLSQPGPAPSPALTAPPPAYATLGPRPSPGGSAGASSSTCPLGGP
T1 sequence (P51168 1-640): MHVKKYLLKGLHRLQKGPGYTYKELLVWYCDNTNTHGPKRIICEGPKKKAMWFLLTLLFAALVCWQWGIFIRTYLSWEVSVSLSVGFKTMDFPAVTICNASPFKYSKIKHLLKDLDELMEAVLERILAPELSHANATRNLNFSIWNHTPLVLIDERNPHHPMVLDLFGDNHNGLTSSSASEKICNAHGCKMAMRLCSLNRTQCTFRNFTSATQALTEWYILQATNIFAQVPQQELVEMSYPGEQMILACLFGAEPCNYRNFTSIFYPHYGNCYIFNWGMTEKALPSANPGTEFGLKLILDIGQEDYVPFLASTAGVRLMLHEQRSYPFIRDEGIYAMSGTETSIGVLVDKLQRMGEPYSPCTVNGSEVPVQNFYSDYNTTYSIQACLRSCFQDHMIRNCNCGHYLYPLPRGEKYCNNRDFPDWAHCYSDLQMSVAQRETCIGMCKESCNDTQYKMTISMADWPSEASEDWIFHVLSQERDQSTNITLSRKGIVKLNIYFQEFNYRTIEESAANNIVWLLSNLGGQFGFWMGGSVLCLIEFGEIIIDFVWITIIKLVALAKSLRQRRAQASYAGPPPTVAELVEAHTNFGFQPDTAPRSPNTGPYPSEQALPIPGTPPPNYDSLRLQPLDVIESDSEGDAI
T1 sequence (P51170 1-649): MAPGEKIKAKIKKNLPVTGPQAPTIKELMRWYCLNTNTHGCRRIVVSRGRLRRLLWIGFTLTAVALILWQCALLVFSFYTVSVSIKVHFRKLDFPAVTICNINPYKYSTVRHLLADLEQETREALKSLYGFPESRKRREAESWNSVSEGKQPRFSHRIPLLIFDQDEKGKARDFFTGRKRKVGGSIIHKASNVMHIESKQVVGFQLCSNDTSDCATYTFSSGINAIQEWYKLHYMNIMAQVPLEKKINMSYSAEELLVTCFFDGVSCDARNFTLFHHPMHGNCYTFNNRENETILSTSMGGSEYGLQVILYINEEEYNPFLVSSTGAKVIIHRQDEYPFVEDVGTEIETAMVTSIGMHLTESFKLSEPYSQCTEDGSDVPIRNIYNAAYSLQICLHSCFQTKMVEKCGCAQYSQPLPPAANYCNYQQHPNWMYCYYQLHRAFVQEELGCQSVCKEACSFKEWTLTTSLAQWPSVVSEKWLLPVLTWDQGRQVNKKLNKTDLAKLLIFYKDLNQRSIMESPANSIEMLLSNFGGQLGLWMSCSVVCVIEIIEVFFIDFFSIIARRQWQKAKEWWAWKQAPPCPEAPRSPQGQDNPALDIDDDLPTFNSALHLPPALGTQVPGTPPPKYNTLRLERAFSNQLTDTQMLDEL
Description: two-electrode voltage clamp in Xenopus oocytes, block of current. It counts as cell-based. (Two-electrode voltage clamp is typically applied to oocytes expressing channels or transporters.)

Test [2] concerns the target T1, human αβγ ENaC (α subunit). Description: two-electrode voltage clamp in Xenopus oocytes, external perfusion. It counts as cell-based.

With `N=C(N)NC(=O)c1nc(Cl)c(N)nc1N` [amiloride], the “two-electrode voltage clamp in Xenopus oocytes, block of current” value in test [1] was “Both basal and elevated currents were sensitive to amiloride”. For orientation: EC50 means the concentration needed to bring the measured effect to its halfway point. A lower EC50 goes with a more potent agent. As for `Nc1ncnc2c1nc(Sc1ccc(Cl)cc1)n2[C@@H]1O[C@@H]2COP(=O)(O)O[C@H]2[C@H]1O` [cpt-cAMP], the EC50 in test [2] is 49 ± 14 µM.

Source of the values: paper PMC3091966 (2011).
